The target in this experiment is HLA-DR0401 protein (Homo sapiens, UniProt P01903+P01911, A100K/A169T/F76Y/I96L/K127E/L162R/M171V/N62H/P40V/Q125Y/R42H/S133A/S149N/S66Y/V115G/V209L/W38E). Put plainly: Peptide competition binding assay against biotinylated HA306–318 on HLA-DR0401.

Each structure is given as a SMILES string. Square brackets hold non-standard residues; d marks the D form. Peptide text beside a SMILES is read from it. Cit = NC(=O)NCCC[C@H](N)C(=O)O

Five compounds from PMC4248674 (Arthritis & rheumatology (Hoboken, N.J.), 2014) can be followed below.

As usually defined, the IC50 is the concentration that gives 50% inhibition. A higher IC50 goes with weaker potency.

`CC(C)C[C@H](NC(=O)[C@H](CO)NC(=O)[C@H](CC(=O)O)NC(=O)[C@H](CC(C)C)NC(=O)[C@H](CC(N)=O)NC(=O)[C@@H](NC(=O)[C@H](CCC(=O)O)NC(=O)[C@H](CCCNC(N)=O)NC(=O)[C@H](CC(C)C)NC(=O)[C@H](CC(N)=O)NC(=O)[C@H](CC(C)C)NC(=O)[C@H](CO)NC(=O)[C@@H](N)CO)[C@@H](C)O)C(=O)O` [Cit-Vim 2]: the IC50 is 14 µM.
Under `CC[C@H](C)[C@H](NC(=O)[C@H](CCCNC(N)=O)NC(=O)[C@@H](N)CCCCN)C(=O)N[C@@H](C)C(=O)N[C@@H](CCCCN)C(=O)N[C@@H](C)C(=O)N[C@H](C(=O)N[C@@H](CC(N)=O)C(=O)N[C@@H](CCC(=O)O)C(=O)N[C@@H](CCCCN)C(=O)N[C@@H](CO)C(=O)N[C@@H](CS)C(=O)N[C@@H](CC(N)=O)C(=O)N[C@@H](CS)C(=O)N[C@@H](CC(C)C)C(=O)O)C(C)C` [Cit-α-enolase 4] (H-K[Cit]IAKAVNEKSCNCL-OH) stands 1.9 µM; under `C[C@H](NC(=O)[C@H](C)NC(=O)[C@H](CCCNC(N)=O)NC(=O)[C@H](C)NC(=O)[C@@H]1CCCN1C(=O)[C@H](CCCNC(N)=O)NC(=O)[C@H](C)NC(=O)[C@H](CCCNC(=N)N)NC(=O)[C@H](Cc1ccc(O)cc1)NC(=O)CN)C(=O)N[C@@H](C)C(=O)N[C@H](C(=O)O)[C@@H](C)O` [Cit-Fib 1] (H-GYRA[Cit]PA[Cit]AAAT-OH), 8.2 µM.
Take `CC(C)C[C@H](NC(=O)[C@H](CCCNC(N)=O)NC(=O)[C@@H](NC(=O)[C@H](C)NC(=O)[C@H](CO)NC(=O)[C@H](CO)NC(=O)[C@H](CCCNC(N)=O)NC(=O)[C@@H](NC(=O)[C@H](C)NC(=O)[C@H](Cc1ccc(O)cc1)NC(=O)[C@@H](NC(=O)CN)C(C)C)[C@@H](C)O)C(C)C)C(=O)N[C@@H](CCCNC(N)=O)C(=O)N[C@@H](CO)C(=O)N[C@@H](CO)C(=O)N[C@H](C(=O)N1CCC[C@H]1C(=O)NCC(=O)N[C@H](C(=O)N[C@@H](CCCNC(=N)N)C(=O)O)C(C)C)C(C)C` [Cit-Vim 1] (H-GVYAT[Cit]SSAV[Cit]L[Cit]SSVPGVR-OH): the half-maximal inhibitory concentration (IC50) is 1.3 µM.
As for `CC[C@H](C)[C@H](NC(=O)[C@H](CCCNC(=N)N)NC(=O)[C@@H](N)CCCCN)C(=O)N[C@@H](C)C(=O)N[C@@H](CCCCN)C(=O)N[C@@H](C)C(=O)N[C@H](C(=O)N[C@@H](CC(N)=O)C(=O)N[C@@H](CCC(=O)O)C(=O)N[C@@H](CCCCN)C(=O)N[C@@H](CO)C(=O)N[C@@H](CS)C(=O)N[C@@H](CC(N)=O)C(=O)N[C@@H](CS)C(=O)N[C@@H](CC(C)C)C(=O)O)C(C)C` [α-enolase 4] (H-KRIAKAVNEKSCNCL-OH), the IC50 amounted to 1.7 µM.
